Source: patent US6265423A, “Aromatic polycyclic retinoid-type derivatives, method for preparing same, and use thereof for making pharmaceutical and cosmetic compositions” (priority 1996, dated 2001)
Entries after “also recorded” stand apart in the source; their conditions may differ.

How the values were obtained:
[1] = tested on: ZR-75-1, T-47D, A549 and A-427 lineages; assay: MTT test, tumour cell lines overall; type: cell-based, human
Description: This test is based on the mitochondrial reduction by living metabolically active cells of the MTT (3-(4,5-dimethylthiazol-2-yl)-2,5-diphenyltetrazolium bromide) of yellowish colour into a blue coloured product, formazan. The quantity of formazan obtained is directly proportional to the number of living cells. After incubation of the cells for 24 hours in microplates with 96 flat bottomed wells, the culture medium is replaced by 100 μl of fresh culture medium containing the drug to be tested.
The microplates are then incubated for 3 hours at 37° C. and centrifuged for 10 minutes at 400 g (GPR centrifuge, Beckman). The MTT solution is replaced by 100 μl of dimethylsulphoxide (Merck). The microplates are agitated (Vari-Shaker, Dynatech) for 10 minutes.
In the microplates, the control cells like the treated cells were incubated in a medium without the compounds to be tested for 24 hours. The control cells are incubated in a medium without a drug throughout the whole experiment, while the treated cells are incubated in different media. These media contain the molecule to be tested at various concentrations: 10^-8 M, 10^-6 M and 10^-4 M. All the tests are carried out in 6 duplicates.

[2] = tested on: T-47D lineage; assay: SAMBA image analysis test; type: cell-based, human
Description: The molecules which have shown themselves to be the most interesting in the MTT test have been evaluated in an image analysis test called SAMBA. In effect, the recent advances in the field of image analysis have allowed new approaches to the evaluation of different cellular kinetic parameters and the measurement of the distribution of chromatin. The data thereby provided are processed using different statistical tests.
The use of the Systeme d'Analyses Microscopiques a Balayage Automatique 2005 (SAMBA 2005, Alcatel TITN, France), (System of Microscopic Analyses with Automatic Sweep 2005) permits measurement of the influence of the compounds researched at three levels:
The cells in exponential growth are cultured on small glass slip plates (Kiss R. et al. Eur. J. Cancer, 27, 1268-1274, 1991) at the rate of from […] cells/ml (depending on the cellular line being considered) in 3 ml of minimum essential medium (MEM, Gibco). […]
The interest in the Feulgen coloration resides in the possibility of colouring the DNA in a specific and stoichiometric fashion (Giroud F., Cell, 44, 177-188, 1982; Kiss R. et al., J. Histochem. Cytochem., 41, 6, 935-945, 1993). For each experimental condition, 900 nuclei are analysed by the image analyser. […]
These 15 parameters are calculated by specific software, from: […]

[3] = cited from earlier work
[4] = tested on: MCF-7 cells; assay: Effect on oestrogen-induced proliferation of MCF-7 cells; type: cell-based, human; settings: estradiol 10^-9 M
Description: MCF-7 cells and HeLa are cultivated in DMFM with phenol red to which 5% foetal calf serum is added. […] The experimental tests are carried out in DMEM without phenol red to which foetal calf serum treated with dextran carbon is added at 3%. […] The experiments using the different retinoids are carried out sheltered from the light so as to avoid any isomerisation.
So as to test the anti-proliferation effect of the retinoids, growth experiments under oestrogenic conditions were carried out on cells MCF-7 and T-47D. These are the human oestrogen-dependent mammary cancer cells which express the receptor to RE oestrogens. The effect of the molecules is evaluated after 7 days of culture in oestrogenic conditions (estradiol 10^-9 M) by dosing the cellular DNA. The cells are distributed in 24 well plates at a density of 2×10^4 cells per well. The tests with the different retinoids are carried out in triplicate and the culture medium is changed after 4 days of growth.

Structure (SMILES) | inhibition of the cellular lineages (in words) [1] | morphonuclear / anti-tumoral effect (in words) [2] | metabolism (in words) ([3]; chronic treatment) | adverse effects in chronic treatment (in words) [3] | effect on oestrogen-induced growth, MCF-7 (in words) [4]
C/C(=C/c1ccc2c(c1)C(C)(C)CCC2(C)C)c1ccc(-c2nnn[nH]2)cc1 [CB92834] | as active on the MTT test as the reference products tested; also recorded: more active on the oestrogen-sensitive lineages such as the mammary lineages ZR-75-1 and T-47D than on the pulmonary lineages | not linked to a cytotoxic effect; also recorded: mediated by an activation of the cellular death and/or an inhibition of the proliferation due to the induction of the cellular differentiation | – | – | –
CC1=C(/C=C/C(C)=C/C=C/C(C)=C/C(=O)O)C(C)(C)CCC1 [CB16178, all-trans retinoic acid, reference compound] | – | – | an inducer of its own metabolism | powerful effect of hypervitaminose, of mucocutaneous toxicity and of teratogenecity | –
C/C(=C\c1ccc(C(=O)O)cc1)c1ccc2c(c1)C(C)(C)CCC2(C)C [TTNPB, reference compound] | induces the strongest inhibition of the cellular lineages | strongly suggests a direct correlation between the cytotoxic effect of the molecule and its anti-tumoral activity; also recorded: exercises its anti-tumoral activity through a direct cytotoxic (cytocidal) effect | – | – | stronger inhibiting effect than the natural ligands (all-trans RA and 9-cis RA) and than LGD1069
